Laboratory results published in ChEMBL document CHEMBL5331057, “A decade of approved first-in-class small molecule orphan drugs: Achievements, challenges and perspectives” (Eur J Med Chem, 2022).
≈ marks a conversion by molar mass, not a printed value.

Columns and labels:
[1] = system: HepG2; test: cells; conditions: Homo sapiens, HepG2, read-out: ED50
[2] = target: Methionine synthase (Homo sapiens, UniProt Q99707); test: Inhibition of MTR (unknown origin)
[3] = target: Cystic fibrosis transmembrane conductance regulator (Homo sapiens, UniProt P13569, F508DEL)
[4] = target: T1, Exportin-1 (Homo sapiens, UniProt O14980); test: Inhibition of XPO1 in human HPBALL cells; assay type: cell-based
[5] = target: T1, Exportin-1; test: Inhibition of XPO1 in human MOLT-16 cells; assay type: cell-based
[6] = system: RS4-11; test: Antiproliferative activity against human RS4-11 cells assessed as […]; assay type: functional, cell-based
[7] = target: Hepatocyte growth factor receptor (Homo sapiens, UniProt P08581); test: Inhibition of c-Met (unknown origin)
[8] = target: Isocitrate dehydrogenase [NADP], mitochondrial (Homo sapiens, UniProt P48735); test: Inhibition of IDH2 (unknown origin)
[9] = system: HCT-116; test: Antiproliferative activity against human HCT-116 cells assessed as inhibition of cell growth; assay type: functional, cell-based
[10] = target: T2, GTPase KRas (Homo sapiens, UniProt P01116); test: Inhibition of K-Ras (unknown origin)
[11] = Inhibition of wild type FTase (unknown origin); parameters: species or system Homo sapiens
[12] = target: GTPase HRas (Homo sapiens, UniProt P01112); test: Inhibition of H-Ras (unknown origin)
[13] = system: Mycobacterium tuberculosis; test: microbe, parasite or virus in culture
[14] = system: Mycobacterium tuberculosis; test: microbe, parasite or virus in culture; remark: listed apart in the source
[15] = system: Brain; test: Neuroprotective activity in Wistar rat brain homogenate assessed as inhibition of lipid peroxidation incubated for 10 mins by fluorometric analysis; assay type: functional, tissue-based
[16] = Cytotoxicity against human HBE cells assessed as inhibition of cell growth; assay type: toxicity, cell-based
[17] = system: Human betaherpesvirus 5; test: Antiviral activity against HCMV infected in human NHDF cells assessed as reduction in virus plaque formation; assay type: functional, organism-based; conditions: Human betaherpesvirus 5, NHDF
[18] = target: T2, GTPase KRas; test: Inhibition of K-Ras in human NCI-H460 cells; assay type: cell-based
[19] = system: SW-620; test: cells; conditions: Homo sapiens
[20] = system: K562; test: Antiproliferative activity against human K562 cells assessed as inhibition of cell growth; assay type: functional, cell-based
[21] = cells; conditions: Homo sapiens, HAC15, 72 h
[22] = system: Aorta; test: Relaxation of pre-contracted rabbit aorta; assay type: functional, tissue-based; conditions: Oryctolagus cuniculus
[23] = target: Soluble guanylate cyclase (Homo sapiens) (UniProt Q02153+O75343+P33402+Q02108); test: Stimulation of recombinant sGC (unknown origin) expressed in CHO cells assessed as formation of cGMP; assay type: cell-based; conditions: filed as activator
[24] = system: Malme-3M; test: Antiproliferative activity against human Malme-3M cells assessed as inhibition of cell growth; assay type: functional, cell-based
[25] = target: Melanocortin receptor 4 (Rattus norvegicus, UniProt P70596); test: Inhibition of rat MC4R
[26] = system: RBL-2H3; test: Antiproliferative activity against rat RBL-2H3 cells assessed as […]; assay type: functional, cell-based

T2 sequence (P01116 whole entry): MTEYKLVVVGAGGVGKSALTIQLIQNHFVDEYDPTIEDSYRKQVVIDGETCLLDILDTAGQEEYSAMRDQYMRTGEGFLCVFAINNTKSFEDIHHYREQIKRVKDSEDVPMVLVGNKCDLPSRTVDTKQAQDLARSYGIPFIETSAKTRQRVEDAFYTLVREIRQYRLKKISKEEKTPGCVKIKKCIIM
Sequence of Methionine synthase (Q99707 whole entry): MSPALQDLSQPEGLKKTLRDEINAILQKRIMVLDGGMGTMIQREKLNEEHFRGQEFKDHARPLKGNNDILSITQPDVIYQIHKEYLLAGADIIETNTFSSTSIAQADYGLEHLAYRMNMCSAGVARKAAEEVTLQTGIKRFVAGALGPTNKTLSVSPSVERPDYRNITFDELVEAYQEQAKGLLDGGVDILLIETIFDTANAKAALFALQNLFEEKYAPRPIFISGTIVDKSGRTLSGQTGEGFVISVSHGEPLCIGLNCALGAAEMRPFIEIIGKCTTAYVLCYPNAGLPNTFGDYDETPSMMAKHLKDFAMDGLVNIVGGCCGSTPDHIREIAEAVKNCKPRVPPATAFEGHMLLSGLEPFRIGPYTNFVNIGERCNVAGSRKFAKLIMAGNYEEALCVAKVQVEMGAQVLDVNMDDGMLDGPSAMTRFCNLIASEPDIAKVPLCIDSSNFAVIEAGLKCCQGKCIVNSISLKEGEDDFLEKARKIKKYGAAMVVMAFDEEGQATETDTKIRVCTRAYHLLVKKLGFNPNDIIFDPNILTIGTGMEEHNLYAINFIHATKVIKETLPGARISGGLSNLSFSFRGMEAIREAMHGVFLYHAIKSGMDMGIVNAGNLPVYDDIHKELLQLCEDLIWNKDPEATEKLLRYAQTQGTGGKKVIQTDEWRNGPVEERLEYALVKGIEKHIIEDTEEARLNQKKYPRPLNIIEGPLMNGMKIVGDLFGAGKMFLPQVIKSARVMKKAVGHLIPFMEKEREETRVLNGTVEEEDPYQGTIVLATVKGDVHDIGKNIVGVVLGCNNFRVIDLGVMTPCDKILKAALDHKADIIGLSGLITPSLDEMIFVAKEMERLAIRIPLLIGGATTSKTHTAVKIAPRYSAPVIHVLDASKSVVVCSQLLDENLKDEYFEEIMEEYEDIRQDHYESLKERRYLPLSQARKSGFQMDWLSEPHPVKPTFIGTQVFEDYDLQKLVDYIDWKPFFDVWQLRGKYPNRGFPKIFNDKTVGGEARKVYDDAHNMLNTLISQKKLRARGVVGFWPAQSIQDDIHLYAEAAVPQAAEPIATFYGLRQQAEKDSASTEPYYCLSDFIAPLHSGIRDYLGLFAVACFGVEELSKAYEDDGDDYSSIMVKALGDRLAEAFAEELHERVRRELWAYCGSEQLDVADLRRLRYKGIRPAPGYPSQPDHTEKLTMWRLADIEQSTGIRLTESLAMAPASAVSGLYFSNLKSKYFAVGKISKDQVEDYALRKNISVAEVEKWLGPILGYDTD
Sequence of Cystic fibrosis transmembrane conductance regulator (P13569 as listed by the source): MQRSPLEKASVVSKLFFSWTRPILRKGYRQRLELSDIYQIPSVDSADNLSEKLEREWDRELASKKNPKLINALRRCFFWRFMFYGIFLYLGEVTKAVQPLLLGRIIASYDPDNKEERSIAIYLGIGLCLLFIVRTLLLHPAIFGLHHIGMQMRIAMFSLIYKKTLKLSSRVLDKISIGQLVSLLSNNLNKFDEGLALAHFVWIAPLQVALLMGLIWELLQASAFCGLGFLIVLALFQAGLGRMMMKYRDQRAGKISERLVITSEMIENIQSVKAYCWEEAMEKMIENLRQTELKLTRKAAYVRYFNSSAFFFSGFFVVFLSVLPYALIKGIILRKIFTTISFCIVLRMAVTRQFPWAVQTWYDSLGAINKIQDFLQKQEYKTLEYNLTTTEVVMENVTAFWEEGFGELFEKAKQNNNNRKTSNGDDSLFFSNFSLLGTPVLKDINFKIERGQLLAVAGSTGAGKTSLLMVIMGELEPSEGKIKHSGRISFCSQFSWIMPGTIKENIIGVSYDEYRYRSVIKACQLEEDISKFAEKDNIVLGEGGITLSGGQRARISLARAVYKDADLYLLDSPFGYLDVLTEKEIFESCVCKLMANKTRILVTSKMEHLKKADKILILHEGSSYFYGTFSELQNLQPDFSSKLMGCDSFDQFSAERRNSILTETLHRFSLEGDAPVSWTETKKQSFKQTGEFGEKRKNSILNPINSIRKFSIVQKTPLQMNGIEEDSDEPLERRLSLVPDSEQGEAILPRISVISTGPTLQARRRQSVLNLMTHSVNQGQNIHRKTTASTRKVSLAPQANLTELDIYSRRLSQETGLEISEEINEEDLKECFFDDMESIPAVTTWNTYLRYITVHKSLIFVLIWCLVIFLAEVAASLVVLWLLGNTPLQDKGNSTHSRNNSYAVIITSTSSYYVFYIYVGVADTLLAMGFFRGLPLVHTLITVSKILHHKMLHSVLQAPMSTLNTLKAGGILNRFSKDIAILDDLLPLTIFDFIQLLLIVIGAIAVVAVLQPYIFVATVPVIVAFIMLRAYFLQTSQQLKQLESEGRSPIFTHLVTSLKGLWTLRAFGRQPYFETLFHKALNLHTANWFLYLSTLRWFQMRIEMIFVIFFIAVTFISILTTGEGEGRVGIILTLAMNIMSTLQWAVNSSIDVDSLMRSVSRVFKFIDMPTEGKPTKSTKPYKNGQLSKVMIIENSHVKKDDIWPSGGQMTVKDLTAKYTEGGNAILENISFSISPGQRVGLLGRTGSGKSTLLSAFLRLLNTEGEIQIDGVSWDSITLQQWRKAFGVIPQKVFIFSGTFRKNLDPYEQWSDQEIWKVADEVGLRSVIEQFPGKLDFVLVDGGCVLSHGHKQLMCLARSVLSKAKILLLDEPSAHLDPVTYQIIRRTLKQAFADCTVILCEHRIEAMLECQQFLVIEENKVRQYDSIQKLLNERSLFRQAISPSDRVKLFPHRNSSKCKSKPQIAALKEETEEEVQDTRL
T1 sequence (O14980 whole entry): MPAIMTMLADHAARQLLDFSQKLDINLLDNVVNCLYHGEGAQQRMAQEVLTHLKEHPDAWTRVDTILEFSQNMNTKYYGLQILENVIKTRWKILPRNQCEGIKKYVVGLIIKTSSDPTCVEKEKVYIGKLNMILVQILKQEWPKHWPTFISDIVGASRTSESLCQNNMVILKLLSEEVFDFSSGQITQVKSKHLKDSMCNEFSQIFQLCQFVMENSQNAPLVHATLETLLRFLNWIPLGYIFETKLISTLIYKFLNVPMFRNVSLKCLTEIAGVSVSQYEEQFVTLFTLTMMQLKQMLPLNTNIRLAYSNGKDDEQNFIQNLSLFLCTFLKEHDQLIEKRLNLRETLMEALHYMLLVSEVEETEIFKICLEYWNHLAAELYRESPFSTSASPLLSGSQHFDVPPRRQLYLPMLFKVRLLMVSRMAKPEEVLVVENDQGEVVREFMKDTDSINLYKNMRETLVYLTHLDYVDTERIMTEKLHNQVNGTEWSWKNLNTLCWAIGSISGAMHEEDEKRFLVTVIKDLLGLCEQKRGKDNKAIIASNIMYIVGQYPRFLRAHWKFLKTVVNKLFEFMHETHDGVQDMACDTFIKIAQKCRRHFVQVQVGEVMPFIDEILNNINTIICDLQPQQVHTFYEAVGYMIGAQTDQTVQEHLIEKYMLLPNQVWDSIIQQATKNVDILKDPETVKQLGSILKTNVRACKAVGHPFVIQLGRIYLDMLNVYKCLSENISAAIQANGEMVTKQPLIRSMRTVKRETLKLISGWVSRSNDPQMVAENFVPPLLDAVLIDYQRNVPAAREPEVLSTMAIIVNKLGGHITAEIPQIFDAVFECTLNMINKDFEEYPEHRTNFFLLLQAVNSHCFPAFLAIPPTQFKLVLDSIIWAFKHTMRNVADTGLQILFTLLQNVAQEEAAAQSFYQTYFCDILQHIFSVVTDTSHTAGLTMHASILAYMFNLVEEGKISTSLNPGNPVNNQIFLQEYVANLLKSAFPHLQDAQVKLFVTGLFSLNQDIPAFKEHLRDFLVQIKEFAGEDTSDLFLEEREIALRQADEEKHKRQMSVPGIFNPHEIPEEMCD
Sequence of Melanocortin receptor 4 (P70596 whole entry): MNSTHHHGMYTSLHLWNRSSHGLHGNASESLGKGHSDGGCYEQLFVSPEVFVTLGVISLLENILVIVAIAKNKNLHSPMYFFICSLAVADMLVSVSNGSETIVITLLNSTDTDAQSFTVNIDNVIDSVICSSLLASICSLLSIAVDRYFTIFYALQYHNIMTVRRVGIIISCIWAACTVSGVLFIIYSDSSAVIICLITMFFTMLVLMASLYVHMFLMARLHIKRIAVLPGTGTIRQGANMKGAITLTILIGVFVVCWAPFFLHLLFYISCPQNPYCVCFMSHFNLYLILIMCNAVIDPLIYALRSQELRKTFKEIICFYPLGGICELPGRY
Sequence of Isocitrate dehydrogenase [NADP], mitochondrial (P48735 whole entry): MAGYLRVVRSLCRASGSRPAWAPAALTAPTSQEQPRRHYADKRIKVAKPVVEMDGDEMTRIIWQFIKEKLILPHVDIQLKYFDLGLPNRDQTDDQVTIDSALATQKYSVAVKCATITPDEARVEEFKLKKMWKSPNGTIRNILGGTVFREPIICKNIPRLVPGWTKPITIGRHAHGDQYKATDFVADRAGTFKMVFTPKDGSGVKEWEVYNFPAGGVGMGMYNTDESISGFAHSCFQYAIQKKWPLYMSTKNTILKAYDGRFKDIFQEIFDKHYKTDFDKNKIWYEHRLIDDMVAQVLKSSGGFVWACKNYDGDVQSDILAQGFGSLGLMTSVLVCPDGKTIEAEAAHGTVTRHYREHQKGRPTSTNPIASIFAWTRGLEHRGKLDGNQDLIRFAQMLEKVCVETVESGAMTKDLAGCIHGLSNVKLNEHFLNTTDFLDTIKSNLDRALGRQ
Sequence of GTPase HRas (P01112 whole entry): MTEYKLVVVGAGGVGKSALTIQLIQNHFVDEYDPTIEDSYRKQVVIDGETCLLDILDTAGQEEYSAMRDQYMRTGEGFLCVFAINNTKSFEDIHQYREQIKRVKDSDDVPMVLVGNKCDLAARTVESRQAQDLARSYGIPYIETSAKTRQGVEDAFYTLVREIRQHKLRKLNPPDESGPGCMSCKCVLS

SMILES: O=C1c2ccccc2CN1C1CCN(CCC(c2ccccc2)c2ccccc2)CC1
- EC50 [1]: 2.2 nM
- IC50 [2]: 2.2 nM

SMILES: O=C(c1c[nH]c2ccccc2c1=O)N(Cc1ccccc1)Cc1ccccc1
- EC50 [3]: 2.1 nM

SMILES: COc1cc(-c2ncn(/C=C\C(=O)OC(C)C)n2)cc(C(F)(F)F)c1
- IC50 [4]: 16 nM
- IC50 [5]: 112 nM

SMILES: CC1(C)CCC(c2ccc(Cl)cc2)=C(CN2CCN(c3ccc(C(=O)NS(=O)(=O)c4ccc(NCC5CCOCC5)c([N+](=O)[O-])c4)c(Oc4cnc5[nH]ccc5c4)c3)CC2)C1
- EC50 [6]: 8 nM

SMILES: Cc1[nH]c(/C=C2\C(=O)Nc3ccc(S(=O)(=O)C(C)c4c(Cl)cccc4Cl)cc32)c(C)c1C(=O)N1CCC[C@@H]1CN1CCCC1 (some centres undefined)
- IC50 [7]: 9 nM

SMILES: CC(C)(C)Nc1nc(Nc2ccccc2)nc(-c2ccccc2)n1
- IC50 [8]: 100 nM
- IC50 [9]: 530 nM

SMILES: O=C(Cc1ccncc1)N1CCN([C@H]2c3ccc(Cl)cc3CCc3cccnc32)CC1
- IC50 [10]: 5.2 nM
- IC50 [11]: 490 nM
- IC50 [12]: 1.9 nM

SMILES: COc1nc2ccc(Br)cc2cc1[C@@H](c1ccccc1)[C@@](O)(CCN(C)C)c1cccc2ccccc12 [BEDAQUILINE]
- MIC [13]: 0.03 µg/mL (≈ 0.054 µM)
- MIC [14]: 0.03 µg/mL (≈ 0.054 µM)

SMILES: CC1=NN(c2ccccc2)C(=O)C1 [EDARAVONE]
- IC50 [15]: 18200 nM

SMILES: NNC(=O)c1ccncc1 [ISONIAZID]
- MIC [13]: 0.12 µg/mL (≈ 0.875 µM)
- MIC [14]: 0.12 µg/mL (≈ 0.875 µM)

SMILES: CC(C)(C)c1cc(C(C)(C)C)c(NC(=O)c2c[nH]c3ccccc3c2=O)cc1O [IVACAFTOR]
- EC50 [3]: 25 nM
- EC50 [16]: 236 nM

SMILES: COc1cccc(N2CCN(C3=Nc4c(F)cccc4[C@H](CC(=O)O)N3c3cc(C(F)(F)F)ccc3OC)CC2)c1 [LETERMOVIR]
- EC50 [17]: 4.5 nM
- EC90 [17]: 6.1 nM

SMILES: O=C(NC1CCN(CCCCC2(C(=O)NCC(F)(F)F)c3ccccc3-c3ccccc32)CC1)c1ccccc1-c1ccc(C(F)(F)F)cc1 [LOMITAPIDE]
- EC50 [1]: 0.8 nM
- IC50 [2]: 0.5 nM

SMILES: NC(=O)N1CCC(CC(=O)N2CCC([C@H]3c4ncc(Br)cc4CCc4cc(Cl)cc(Br)c43)CC2)CC1 [LONAFARNIB]
- IC50 [18]: 40 nM

SMILES: O=C(c1cc(Cc2n[nH]c(=O)c3ccccc23)ccc1F)N1CCN(C(=O)C2CC2)CC1 [OLAPARIB]
- IC50 [19]: 6 nM

SMILES: COC(=O)C[C@](O)(CCCC(C)(C)O)C(=O)O[C@@H]1C(OC)=C[C@]23CCCN2CCc2cc4c(cc2[C@H]13)OCO4 [OMACETAXINE MEPESUCCINATE]
- IC50 [20]: 21 nM

SMILES: N#Cc1ccc([C@H]2CCc3cncn32)c(F)c1 [OSILODROSTAT]
- IC50 [21]: 35 nM

SMILES: CO[C@H]1/C=C/O[C@@]2(C)Oc3c(C)c(O)c4c(O)c(c(/C=N/N5CCN(C)CC5)c(O)c4c3C2=O)NC(=O)/C(C)=C\C=C\[C@H](C)[C@H](O)[C@@H](C)[C@@H](O)[C@@H](C)[C@H](OC(C)=O)[C@@H]1C [RIFAMPIN]
- MIC [13]: 0.5 µg/mL (≈ 0.608 µM)
- MIC [14]: 0.5 µg/mL (≈ 0.608 µM)

SMILES: COC(=O)N(C)c1c(N)nc(-c2nn(Cc3ccccc3F)c3ncccc23)nc1N [RIOCIGUAT]
- IC50 [22]: 120 nM
- MEC [23]: 0.03 µM

SMILES: Cn1cnc2c(F)c(Nc3ccc(Br)cc3Cl)c(C(=O)NOCCO)cc21 [SELUMETINIB]
- IC50 [24]: 59 nM

SMILES: CC(=O)N[C@@H](CCCNC(=N)N)C(=O)N[C@H]1CSSC[C@@H](C(N)=O)NC(=O)[C@H](Cc2c[nH]c3ccccc23)NC(=O)[C@H](CCCNC(=N)N)NC(=O)[C@@H](Cc2ccccc2)NC(=O)[C@H](Cc2c[nH]cn2)NC(=O)[C@@H](C)NC1=O [SETMELANOTIDE]
- EC50 [25]: 0.28 nM

SMILES: CCOC(=O)[C@@H](N)Cc1ccc(-c2cc(O[C@H](c3ccc(Cl)cc3-n3ccc(C)n3)C(F)(F)F)nc(N)n2)cc1 [TELOTRISTAT ETIPRATE]
- IC50 [26]: 400 nM
